Experimental data taken from patent publication US5519034A, “Tetraisoquinoline compounds which have useful pharmaceutical utility” (The Boots Company PLC, priority 1991, dated 1996).
Where two headings read alike, the source gives them in different places.

Key:
D2 dopamine receptors = target: T1, D2 dopamine receptors (Rattus norvegicus, UniProt P61169); test: D2 dopamine receptor binding: inhibition of tritiated (S)-sulpiride binding, rat striatal samples; design: species or system rat (male Charles River CD rats); conditions: for Ki: rat striatum, tritiated (S)-sulpiride; for Ki for D2 / Ki for D1: ratio to two significant figures
T1 construct: Striatal samples from the brains of male Charles River CD rats; from tissue; host or cells: striatum of male Charles River CD rats (washed membrane pellet)
T1 sequence (P61169 whole entry): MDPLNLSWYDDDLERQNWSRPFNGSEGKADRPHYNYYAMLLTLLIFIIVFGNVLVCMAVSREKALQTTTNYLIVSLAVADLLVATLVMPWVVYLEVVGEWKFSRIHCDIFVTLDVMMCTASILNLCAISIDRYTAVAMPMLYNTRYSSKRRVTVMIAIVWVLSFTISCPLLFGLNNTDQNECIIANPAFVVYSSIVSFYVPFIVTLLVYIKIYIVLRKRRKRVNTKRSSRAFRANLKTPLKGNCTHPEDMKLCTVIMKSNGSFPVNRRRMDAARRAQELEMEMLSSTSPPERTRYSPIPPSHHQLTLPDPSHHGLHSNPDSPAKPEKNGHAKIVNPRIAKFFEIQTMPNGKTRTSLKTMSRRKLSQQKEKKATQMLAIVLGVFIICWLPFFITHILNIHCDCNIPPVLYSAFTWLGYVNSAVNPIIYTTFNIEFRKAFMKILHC
Description: (§1) Striatal samples from the brains of male Charles River CD rats weighing between 140-250 g were homogenised in ice-cold 50 mM Tris-HCl buffer (pH 7.4 when measured at 25° C. for D1 binding assays and pH 7.7 when measured at 25° C. for D2 binding assays) and centrifuged for 10 minutes (at 21,000 g when used for D1binding assay and 40,000 g when used for D2binding assays). The pellet was resuspended in the same buffer, again centrifuged and the final pellet stored at -80° C. Before each test the pellet was resuspended in 50 mM Tris-HCl buffer containing 120 mM NaCl, 5 mM KCl, 2 mM CaCl2 and 1 mM MgCl2 at pH 7.4 for the D1 binding assays and at pH 7.7 with the addition of 6 mM ascorbic acid for the D2 binding assays. Aliquots of this suspension were then added to tubes containing the ligand and either the compound under test or buffer. For the D1 binding assays the ligand was tritiated SCH 23390 and the mixture was incubated at 37° C. for 30 minutes before the incubation was terminated by rapid filtration. For the D2 binding assays the ligand was tritiated (S)-sulpiride and the mixture was incubated at 4° C. for 40 minutes before the incubation was terminated by rapid filtration. Non-specific binding was determined experimentally by the addition of saturating concentrations of chloropromazine or spiroperidol for D1 and D2 receptors respectively.
(§2) The filters were washed with ice-cold Tris-HCl buffer and dried. The filters were punched out on to vials containing scintillation fluid and were left for about 20 hours before being counted by scintillation spectrophotometry. Displacement curves were produced over a range of concentrations of the compound under test and the concentration which gave a 50% inhibition of specific binding (IC50) obtained from the curve. The inhibition coefficient Ki was then calculated using the formula [formula] in which [ligand] is the concentration of the tritiated ligand used and KD is the equilibrium dissociation constant for the ligand.
(§3) In some cases Ki values for D2 binding were estimated from single concentration data by the application of the Langmuir adsorption isotherm equation. These cases are indicated by an "E" in the last two columns of Table I. In other cases it was not possible to determine or estimate the Ki and the Ki value is given as greater than (>) that which would result from the application of the above formula to the highest concentration which displaced ≤50% of the ligand.

D1 dopamine receptors = target: T2, D1 dopamine receptors (Rattus norvegicus, UniProt P18901); test: D1 dopamine receptor binding: inhibition of tritiated SCH 23390 binding, rat striatal samples; design: species or system rat (male Charles River CD rats); conditions: rat striatum, tritiated SCH 23390, pH 7.4, 37° C., 30 minutes
T2 construct: Striatal samples from the brains of male Charles River CD rats; from tissue; host or cells: striatum of male Charles River CD rats (washed membrane pellet)
T2 sequence (P18901 whole entry): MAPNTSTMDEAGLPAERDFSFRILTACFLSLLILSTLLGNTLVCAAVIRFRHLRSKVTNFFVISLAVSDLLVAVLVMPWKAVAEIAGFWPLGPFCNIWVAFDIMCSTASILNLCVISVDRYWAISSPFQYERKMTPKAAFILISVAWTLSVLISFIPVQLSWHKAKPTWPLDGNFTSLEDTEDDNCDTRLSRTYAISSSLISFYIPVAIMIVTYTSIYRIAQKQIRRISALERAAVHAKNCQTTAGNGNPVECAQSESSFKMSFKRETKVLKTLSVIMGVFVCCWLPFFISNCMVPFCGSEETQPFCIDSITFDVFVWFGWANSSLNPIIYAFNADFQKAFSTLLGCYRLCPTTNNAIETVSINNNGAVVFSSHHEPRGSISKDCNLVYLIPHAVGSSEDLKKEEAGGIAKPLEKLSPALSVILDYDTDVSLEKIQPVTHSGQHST
Description: as §1, §2, §3

[1] = pH 7.7, 4° C., 40 minutes, > = from highest concentration which displaced ≤50% of the ligand, read-out: Ki for D2 binding
[2] = estimated from single concentration data by Langmuir adsorption isotherm equation, read-out: Ki for D2 binding (marked E)

SMILES | Ki (D2 dopamine receptors; [1]) [µM] | Ki for D2 / Ki for D1 (D2 dopamine receptors) | Ki (D1 dopamine receptors) [µM] | Ki (D2 dopamine receptors; [2]) [µM]
CN1CCc2cc(O)c(O)cc2C1C1(c2ccccc2)CC(C)(C)C1 (centres unmarked) [Example 21, 6,7-dihydroxy-2-methyl-1-(3,3-dimethyl-1-phenylcyclobutyl)-1,2,3,4-tetrahydroisoquinoline] | > 5 | > 25 | 0.2 | –
CN1CCc2cc(Cl)c(O)cc2C1C1(c2ccccc2Cl)CCC1 (centres unmarked) [Example 22, 6-chloro-1-[1-(2-chlorophenyl)cyclobutyl]-7-hydroxy-2-methyl-1,2,3,4-tetrahydroisoquinoline] | 1.8 | 780 | 0.0023 | –
CN1CCc2cc(O)c(O)cc2C1C1(c2ccccc2C(F)(F)F)CCC1 (centres unmarked) [Example 23, 6,7-dihydroxy-2-methyl-1-[1-(2-trifluoromethylphenyl)cyclobutyl]-1,2,3,4-tetrahydroisoquinoline] | 15 | 830 | 0.018 | –
CN1CCc2cc(F)c(O)cc2C1C1(c2ccccc2Cl)CCC1 (centres unmarked) [Example 24, 1-[1-(2-chlorophenyl)cyclobutyl]-6-fluoro-7-hydroxy-2-methyl-1,2,3,4-tetrahydroisoquinoline] | 1.7 | 890 | 0.0019 | –
CN1CCc2cc(F)c(O)cc2C1C1(c2ccccc2)CCC1 (centres unmarked) [Example 25, 6-fluoro-7-hydroxy-2-methyl-1-(1-phenylcyclobutyl)-1,2,3,4-tetrahydroisoquinoline] | 5400 | 280000 | 0.019 | –
CN1CCc2c(O)cccc2C1C1(c2ccc(Cl)cc2)CCC1 (centres unmarked) [Example 26, 1-[1-(4-chlorophenyl)cyclobutyl]-5-hydroxy-2-methyl-1,2,3,4-tetrahydroisoquinoline] | – | – | 0.56 | 7
CN1CCc2cc(O)c(O)cc2C1C1(c2ccccc2)CC1 (centres unmarked) [Example 27, 6,7-dihydroxy-2-methyl-1-(1-phenylcyclopropyl)-1,2,3,4-tetrahydroisoquinoline] | 5.7 | 30 | 0.19 | –
CN1CCc2cc(Cl)c(O)cc2C1C1(c2ccccc2)CCC1 (centres unmarked) [Example 28, 6-chloro-7-hydroxy-2-methyl-1-(1-phenylcyclobutyl)-1,2,3,4-tetrahydroisoquinoline] | 3.6 | 330 | 0.011 | –
CN1CCc2cc(O)c(O)cc2C1C1(c2ccccc2)CCCCC1 (centres unmarked) [Example 29, 6,7-dihydroxy-2-methyl-1-(1-phenylcyclohexyl)-1,2,3,4-tetrahydroisoquinoline] | – | – | 0.12 | 7
CN1CCc2cc(Cl)c(O)cc2C1C1(c2ccccc2)CC(C)(C)C1 (centres unmarked) [Example 30, 6-chloro-7-hydroxy-2-methyl-1-(3,3-dimethyl-1-phenylcyclobutyl)-1,2,3,4-tetrahydroisoquinoline] | > 5 | > 76 | 0.066 | –
CN1CCc2cc(O)c(Cl)cc2C1C1(c2ccccc2)CCC1 (centres unmarked) [Example 31, 7-chloro-6-hydroxy-2-methyl-1-(1-phenylcyclobutyl)-1,2,3,4-tetrahydroisoquinoline] | – | – | 0.54 | 11
CN1CCc2c(cc(O)c(O)c2Cl)C1C1(c2ccccc2)CCC1 (centres unmarked) [Example 32, 5-chloro-6,7-dihydroxy-2-methyl-1-(1-phenylcyclobutyl)-1,2,3,4-tetrahydroisoquinoline] | > 5 | > 36 | 0.14 | –
CN1CCc2cc(O)c(O)cc2C1C1(c2cccc(Cl)c2)CCC1 (centres unmarked) [Example 33, 1-[1-(3-chlorophenyl)cyclobutyl]-6,7-dihydroxy-2-methyl-1,2,3,4-tetrahydroisoquinoline] | 23 | 350 | 0.065 | –
CN1CCc2cc(F)c(O)cc2C1C1(c2ccccc2Br)CCC1 (centres unmarked) [Example 34, 1-[1-(2-bromophenyl)cyclobutyl]-6-fluoro-7-hydroxy-2-methyl-1,2,3,4-tetrahydroisoquinoline] | 7.8 | 4300 | 0.0018 | –
COc1cc2c(cc1O)C(C1(c3ccccc3Cl)CCC1)N(C)CC2 (centres unmarked) [Example 35, 1-[1-(2-chlorophenyl)cyclobutyl]-7-hydroxy-6-methoxy-2-methyl-1,2,3,4-tetrahydroisoquinoline] | 240 | 180000 | 0.0013 | –
COc1cc2c(cc1O)C(C1(c3ccccc3)CCCCC1)N(C)CC2 (centres unmarked) [Example 36, 7-hydroxy-6-methoxy-2-methyl-1-(1-phenylcyclohexyl)-1,2,3,4-tetrahydroisoquinoline] | 4.4 | 71 | 0.062 | –
COc1cc2c(cc1O)C(C1(c3ccc(Cl)cc3Cl)CCC1)N(C)CC2 (centres unmarked) [Example 37, 1-[1-(2,4-dichlorophenyl)cyclobutyl]-7-hydroxy-6-methoxy-2-methyl-1,2,3,4-tetrahydroisoquinoline] | 5.3 | 8800 | 0.0006 | –
COc1cc2c(cc1O)C(C1(c3ccccc3OC)CCC1)N(C)CC2 (centres unmarked) [Example 38, 7-hydroxy-6-methoxy-1-[1-(2-methoxyphenyl)cyclobutyl]-2-methyl-1,2,3,4-tetrahydroisoquinoline] | 3.4 | 830 | 0.0041 | –
COc1cccc(C2(C3c4cc(O)c(OC)cc4CCN3C)CCC2)c1 (centres unmarked) [Example 39, 7-hydroxy-6-methoxy-1-[1-(3-methoxyphenyl)cyclobutyl]-2-methyl-1,2,3,4-tetrahydroisoquinoline] | 1.9 | 83 | 0.023 | –
CN1CCc2cc(Cl)c(O)cc2C1C1(c2ccccc2Br)CCC1 (centres unmarked) [Example 40, 1-[1-(2-bromophenyl)cyclobutyl]-6-chloro-7-hydroxy-2-methyl-1,2,3,4-tetrahydroisoquinoline] | 18 | 45000 | 0.0004 | –
CN1CCc2ccc(O)cc2C1C1(c2ccccc2)CCC1 (centres unmarked) [Example 41, 7-hydroxy-2-methyl-1-(1-phenylcyclobutyl)-1,2,3,4-tetrahydroisoquinoline] | 13 | 160 | 0.079 | –
CN1CCc2cc(O)c(O)cc2C1C1(c2ccc3ccccc3c2)CCC1 (centres unmarked) [Example 42, 6,7-dihydroxy-2-methyl-1-[1-(2-naphthyl)cyclobutyl]-1,2,3,4-tetrahydroisoquinoline] | 2.5 | 15 | 0.17 | –
COc1cc2c(cc1O)C(C1(c3cccc4ccccc34)CC1)N(C)CC2 (centres unmarked) [Example 43, 7-hydroxy-6-methoxy-2-methyl-1-[1-(1-naphthyl)cyclopropyl]-1,2,3,4-tetrahydroisoquinoline] | 0.86 | 610 | 0.0014 | –
CN1CCc2c(Cl)ccc(O)c2C1C1(c2ccccc2)CCC1 (centres unmarked) [Example 44, 5-chloro-8-hydroxy-2-methyl-1-(1-phenylcyclobutyl)-1,2,3,4-tetrahydroisoquinoline] | 4.8 | 37 | 0.13 | –
CN1CCc2cc(O)c(O)cc2C1C1(c2ccccc2)CCC1 (centres unmarked) [Example 45, 6,7-dihydroxy-2-methyl-1-(1-phenylcyclobutyl)-1,2,3,4-tetrahydroisoquinoline] | > 0.5 | > 21 | 0.024 | –
CN1CCc2cc(O)c(O)cc2C1C1(c2ccc(Cl)cc2Cl)CCC1 (centres unmarked) [Example 46] | 1.2 | 180 | 0.0066 | –
CN1CCc2ccc(O)cc2C1C1(c2ccccc2Cl)CCC1 (centres unmarked) [Example 47, 1-[1-(2-chlorophenyl)cyclobutyl]-7-hydroxy-2-methyl-1,2,3,4-tetrahydroisoquinoline] | 19 | 2100 | 0.0091 | –
COc1cc2c(cc1O)C(C1(c3ccccc3)CCCC1)N(C)CC2 (centres unmarked) [Example 48] | – | – | 0.094 | 3
COc1cc2c(cc1O)C(C1(c3ccc(Cl)cc3)CCC1)N(C)CC2 (centres unmarked) [Example 49, 1-[1-(4-chlorophenyl)cyclobutyl]-7-hydroxy-6-methoxy-2-methyl-1,2,3,4-tetrahydroisoquinoline] | > 0.5 | > 60 | 0.0084 | –
